Experimental data as given in US6613766B1, “Pentaaza-cyclopental[a]naphthalene derivatives as ligands for GABAa α5 receptors” (Merck Sharp & Dohme Ltd., priority 1998, dated 2003).

melting point: 255 to 257 °C
Structure (SMILES): Cc1cc(-c2nnc3c4cccnc4c(OCc4ncnn4C)nn23)no1 [Example 4, 3-(5-Methylisoxazol-3-yl)-5-(2-methyl-1,2,4-triazol-3-ylmethyloxy)-1,2,3a,4,6-pentaaza-cyclopenta[a]naphthalene]
